According to patent publication US20080096811A1, “[…] VPAC2 RECEPTOR PEPTIDE AGONISTS” (Eli Lilly and Company, published 2008):
*1 amine or outer side, *2 acyl side, *3 side chain or, on linkers, in order; H or OH if unused. Where a SMILES comes first, the peptide text is derived from it. Where no end group is shown, it is not given here. Side-chain parts run from the residue outwards. The star is where a group is joined. γGlu = O=C(O)[C@H](CCC(=O)[*:2])N[*:1]; Hydrocinnamoyl = O=C(CCc1ccccc1)*; Palmitoyl = CCCCCCCCCCCCCCCC(=O)*; Hexanoyl = CCCCCC(=O)*

B1: P81 (peptide)
peptide: Hexanoyl-HSDAVFTDNYTRLRKQVAAKKYLQSIKNSRTSPPPK([γGlu-Palmitoyl])-NH2
SMILES: CCCCCCCCCCCCCCCC(=O)N[C@@H](CCC(=O)NCCCC[C@H](NC(=O)[C@@H]1CCCN1C(=O)[C@@H]1CCCN1C(=O)[C@@H]1CCCN1C(=O)[C@H](CO)NC(=O)[C@@H](NC(=O)[C@H](CCCNC(=N)N)NC(=O)[C@H](CO)NC(=O)[C@H](CC(N)=O)NC(=O)[C@H](CCCCN)NC(=O)[C@@H](NC(=O)[C@H](CO)NC(=O)[C@H](CCC(N)=O)NC(=O)[C@H](CC(C)C)NC(=O)[C@H](Cc1ccc(O)cc1)NC(=O)[C@H](CCCCN)NC(=O)[C@H](CCCCN)NC(=O)[C@H](C)NC(=O)[C@H](C)NC(=O)[C@@H](NC(=O)[C@H](CCC(N)=O)NC(=O)[C@H](CCCCN)NC(=O)[C@H](CCCNC(=N)N)NC(=O)[C@H](CC(C)C)NC(=O)[C@H](CCCNC(=N)N)NC(=O)[C@@H](NC(=O)[C@H](Cc1ccc(O)cc1)NC(=O)[C@H](CC(N)=O)NC(=O)[C@H](CC(=O)O)NC(=O)[C@@H](NC(=O)[C@H](Cc1ccccc1)NC(=O)[C@@H](NC(=O)[C@H](C)NC(=O)[C@H](CC(=O)O)NC(=O)[C@H](CO)NC(=O)[C@H](Cc1c[nH]cn1)NC(=O)CCCCC)C(C)C)[C@@H](C)O)[C@@H](C)O)C(C)C)[C@@H](C)CC)[C@@H](C)O)C(N)=O)C(=O)O
B2: P309 (peptide)
peptide: HSDAVFTDNYTRLRXQVAAXKYLQSIKNSRTSPPP
modifications: N-terminal hexanoyl (C6); Aib (amino isobutyric acid) at positions 15 and 20; C-terminal amide (-NH2)
B3: P118 (peptide)
peptide: Hexanoyl-HSDAVFTDNYTRLRKQVAAKKYLQSIKNSRTSPPPK(Trp)-NH2
SMILES: CCCCCC(=O)N[C@@H](Cc1c[nH]cn1)C(=O)N[C@@H](CO)C(=O)N[C@@H](CC(=O)O)C(=O)N[C@@H](C)C(=O)N[C@H](C(=O)N[C@@H](Cc1ccccc1)C(=O)N[C@H](C(=O)N[C@@H](CC(=O)O)C(=O)N[C@@H](CC(N)=O)C(=O)N[C@@H](Cc1ccc(O)cc1)C(=O)N[C@H](C(=O)N[C@@H](CCCNC(=N)N)C(=O)N[C@@H](CC(C)C)C(=O)N[C@@H](CCCNC(=N)N)C(=O)N[C@@H](CCCCN)C(=O)N[C@@H](CCC(N)=O)C(=O)N[C@H](C(=O)N[C@@H](C)C(=O)N[C@@H](C)C(=O)N[C@@H](CCCCN)C(=O)N[C@@H](CCCCN)C(=O)N[C@@H](Cc1ccc(O)cc1)C(=O)N[C@@H](CC(C)C)C(=O)N[C@@H](CCC(N)=O)C(=O)N[C@@H](CO)C(=O)N[C@H](C(=O)N[C@@H](CCCCN)C(=O)N[C@@H](CC(N)=O)C(=O)N[C@@H](CO)C(=O)N[C@@H](CCCNC(=N)N)C(=O)N[C@H](C(=O)N[C@@H](CO)C(=O)N1CCC[C@H]1C(=O)N1CCC[C@H]1C(=O)N1CCC[C@H]1C(=O)N[C@@H](CCCCNC(=O)[C@@H](N)Cc1c[nH]c2ccccc12)C(N)=O)[C@@H](C)O)[C@@H](C)CC)C(C)C)[C@@H](C)O)[C@@H](C)O)C(C)C

Assays:
human VPAC2 [1] = target: T1, human VPAC2 (Homo sapiens, UniProt P41587); test: DiscoveRx cAMP in vitro potency, human VPAC2; assay type: cell-based
T1 construct: expressed in transfected cells
T1 sequence (P41587 24-438): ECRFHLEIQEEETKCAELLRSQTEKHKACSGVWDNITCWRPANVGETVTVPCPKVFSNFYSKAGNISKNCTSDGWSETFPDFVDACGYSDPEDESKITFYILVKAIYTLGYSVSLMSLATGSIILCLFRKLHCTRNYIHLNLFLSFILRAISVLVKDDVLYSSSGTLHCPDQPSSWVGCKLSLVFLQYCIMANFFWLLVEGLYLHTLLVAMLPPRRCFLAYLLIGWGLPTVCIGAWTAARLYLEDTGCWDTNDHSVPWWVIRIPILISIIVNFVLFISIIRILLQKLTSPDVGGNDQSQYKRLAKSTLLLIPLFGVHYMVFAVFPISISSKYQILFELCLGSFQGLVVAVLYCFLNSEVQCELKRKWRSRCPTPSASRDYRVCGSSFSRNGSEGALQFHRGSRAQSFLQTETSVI
Protocol: (§1) Also, the cells are washed twice. The cells are incubated in assay buffer plus IBMX for 15 minutes at room temperature. […] The stimuli are present for 30 minutes. Then, the assay buffer is gently removed. […] At day 3, the assay described above for the VPAC2 receptor cell line is performed.

human VPAC2 [2] = target: T1, human VPAC2; test: Filter binding assay, human VPAC2 membranes, 125I-labeled VIP tracer
Protocol: (§2) For this assay, the solutions and equipment include:
(§3) Presoak solution: 0.5% Polyethyleneamine in Aqua dest.
(§4) Buffer for flushing filter plates: 25 mM […] pH 7.4
(§5) Blocking buffer: 25 mM HEPES pH 7.4; 0.2% protease free BSA
(§6) Assay buffer: 25 mM HEPES pH 7.4; 0.5% protease free BSA
(§7) Dilution and assay plate: PS-Microplate, U form
(§8) Filtration Plate Multiscreen FB Opaque Plate; […] Type B Glasfiber filter
(§9) In order to prepare the filter plates, aspirate the presoak solution by vacuum filtration. Flush the plates twice with 200 μL flush buffer. Add 200 μL blocking buffer to the filter plate. The filter plate is then incubated […] for 1 hour at room temperature.
(§10) Fill the assay plate with 25 μL assay buffer, 25 μL membranes (2.5 μg) suspended in assay buffer, 25 μL compound (agonist) in assay buffer, and 25 μL tracer (about 40000 cpm) in assay buffer. Incubate the filled plate for 1 hour with shaking.
(§11) Conduct the transfer from assay plate to filter plate. Aspirate the blocking buffer by vacuum filtration and wash two times with flush buffer. Transfer 90 μL from the assay plate to the filter plate. Aspirate the 90 μL transferred from assay plate and wash three times with 200 μL flush buffer. Remove the plastic support. Dry for 1 hour at 60° C. Add 30 μL Microscint. Perform the count.

human PAC1 [3] = target: T2, human PAC1 (Homo sapiens, UniProt P41586); test: cell-based
T2 sequence (P41586 21-468): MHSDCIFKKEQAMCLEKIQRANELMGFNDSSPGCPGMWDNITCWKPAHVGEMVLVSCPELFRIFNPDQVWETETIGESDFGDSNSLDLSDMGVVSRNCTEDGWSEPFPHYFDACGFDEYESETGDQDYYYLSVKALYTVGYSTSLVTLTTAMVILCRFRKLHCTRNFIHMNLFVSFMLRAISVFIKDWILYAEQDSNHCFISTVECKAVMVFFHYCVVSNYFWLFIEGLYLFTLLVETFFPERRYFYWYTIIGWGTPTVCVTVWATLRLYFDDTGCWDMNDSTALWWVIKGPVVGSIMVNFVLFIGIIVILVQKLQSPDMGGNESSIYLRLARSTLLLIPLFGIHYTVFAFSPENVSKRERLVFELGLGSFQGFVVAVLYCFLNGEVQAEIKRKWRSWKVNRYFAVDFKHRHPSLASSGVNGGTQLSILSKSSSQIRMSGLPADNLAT
Protocol: as §1

human VPAC1 [4] = target: T3, human VPAC1 (Homo sapiens, UniProt P32241); test: Filter binding assay, human VPAC1 membranes, 125I-labeled VIP tracer; set-up: expressed in transfected cells
T3 sequence (P32241 31-457): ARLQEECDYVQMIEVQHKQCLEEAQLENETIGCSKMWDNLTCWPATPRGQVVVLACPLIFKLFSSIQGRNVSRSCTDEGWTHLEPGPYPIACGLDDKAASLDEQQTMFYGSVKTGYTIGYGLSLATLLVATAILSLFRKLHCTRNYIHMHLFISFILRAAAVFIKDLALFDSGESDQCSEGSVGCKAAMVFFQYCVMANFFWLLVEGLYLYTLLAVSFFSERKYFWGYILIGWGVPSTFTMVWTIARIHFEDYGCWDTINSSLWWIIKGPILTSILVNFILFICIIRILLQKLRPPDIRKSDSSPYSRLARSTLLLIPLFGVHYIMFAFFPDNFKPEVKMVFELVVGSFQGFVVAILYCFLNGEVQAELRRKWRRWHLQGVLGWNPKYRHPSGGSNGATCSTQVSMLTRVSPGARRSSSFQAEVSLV
Protocol: as §2, §3, §4, §5, §6, §7, §8, §9, §10, §11

human VPAC2 [5] = target: T1, human VPAC2; test: Alpha screen cAMP in vitro potency, human VPAC2; assay type: cell-based
Protocol: Alpha screen: Cells are washed in the culture flask once with PBS. Then, the cells are rinsed with enzyme free dissociation buffer. The dissociated cells are removed. The cells are then spun down and washed in stimulation buffer. For each data point, 50,000 cells suspended in stimulation buffer are used. To this buffer, Alpha screen acceptor beads are added along with the stimuli. This mixture is incubated for 60 minutes. Lysis buffer and Alpha screen donor beads are added and are incubated for 60 to 120 minutes. The Alpha screen signal (indicative of intracellular cAMP levels) is read in a suitable instrument (e.g. AlphaQuest from Perlin-Elmer). Steps including Alpha screen donor and acceptor beads are performed in reduced light.

human VPAC1 [6] = target: T3, human VPAC1; test: DiscoveRx cAMP in vitro potency, human VPAC1; assay type: cell-based; set-up: expressed in transfected cells; host or cells: CHO-PO, transient transfection (Lipofectamine)
Protocol: as §1

human PAC1 [7] = target: T2, human PAC1; test: biochemical
Protocol: as §2, §3, §4, §5, §6, §7, §8, §9, §10, §11

[8] = target: T4, human VPAC2 receptor (human) (UniProt P41587)
T4 sequence: T1 sequence (P41587 24-438)

rat VPAC1 receptor = target: T5, rat VPAC1 receptor (rat, UniProt P30083); test: cell-based or functional assay
T5 sequence: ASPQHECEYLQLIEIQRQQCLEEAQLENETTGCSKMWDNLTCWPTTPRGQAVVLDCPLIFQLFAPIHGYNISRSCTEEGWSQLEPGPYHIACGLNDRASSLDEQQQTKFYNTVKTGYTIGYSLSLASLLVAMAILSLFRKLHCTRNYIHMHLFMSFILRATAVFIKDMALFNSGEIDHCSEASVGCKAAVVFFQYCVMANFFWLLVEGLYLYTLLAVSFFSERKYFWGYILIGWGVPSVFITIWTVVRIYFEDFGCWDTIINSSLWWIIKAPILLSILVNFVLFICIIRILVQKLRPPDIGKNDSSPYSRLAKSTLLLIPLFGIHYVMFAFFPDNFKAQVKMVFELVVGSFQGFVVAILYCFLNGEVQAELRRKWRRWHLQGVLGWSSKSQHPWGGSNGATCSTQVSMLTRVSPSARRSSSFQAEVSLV

rat VPAC2 receptor = target: T6, rat VPAC2 receptor (rat, UniProt P35000); test: cell-based or functional assay
T6 sequence: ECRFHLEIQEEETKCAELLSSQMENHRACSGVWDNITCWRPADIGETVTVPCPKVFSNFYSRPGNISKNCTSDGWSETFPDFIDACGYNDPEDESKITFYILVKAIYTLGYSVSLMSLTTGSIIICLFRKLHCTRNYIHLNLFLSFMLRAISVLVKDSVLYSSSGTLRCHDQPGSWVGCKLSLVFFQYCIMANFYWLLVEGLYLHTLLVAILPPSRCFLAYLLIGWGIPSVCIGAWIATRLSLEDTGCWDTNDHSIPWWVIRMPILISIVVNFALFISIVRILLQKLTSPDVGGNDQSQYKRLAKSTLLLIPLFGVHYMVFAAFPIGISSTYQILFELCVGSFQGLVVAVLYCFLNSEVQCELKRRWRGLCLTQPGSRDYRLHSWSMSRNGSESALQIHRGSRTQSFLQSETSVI

| Molecule | EC50 (human VPAC2 [1]) | IC50 (human VPAC2 [2]) | IC50 (human VPAC1 [4]) | EC50 (human VPAC2 [5]) | EC50 (nM) for cAMP generation, Alpha Screen [8] | EC50 for cAMP generation, DiscoveRx (rat VPAC1 receptor) | other results |
| --- | --- | --- | --- | --- | --- | --- | --- |
| Ac-HSDAVFTDNYTRLRKQVAAKKYLQSIKNSRTSPPP-NH2 [Agonist P32] | 0.65 nM | 0.89 nM | 38.3 nM | 0.32 nM | – | – | EC50 (human PAC1 [3]): 125 nM; EC50 (human VPAC1 [6]): 8.24 nM |
| HSDAVFTDNYTRLRKQVAAKKYLQSIKNSRTSPPP-NH2 [Agonist P5] | 1.21 nM | 0.67 nM | 56.7 nM | 1.5 nM | – | – | IC50 (human PAC1 [7]): 234 nM; EC50 (human PAC1 [3]): 30 nM; EC50 (human VPAC1 [6]): 1.1 nM |
| CC[C@H](C)[C@H](NC(=O)[C@H](CO)NC(=O)[C@H](CCC(N)=O)NC(=O)[C@H](CC(C)C)NC(=O)[C@H](Cc1ccc(O)cc1)NC(=O)[C@H](CCCCN)NC(=O)[C@H](CCCCN)NC(=O)[C@H](C)NC(=O)[C@H](C)NC(=O)[C@@H](NC(=O)[C@H](CCC(N)=O)NC(=O)[C@H](CCCCN)NC(=O)[C@H](CCCNC(=N)N)NC(=O)[C@H](CC(C)C)NC(=O)[C@H](CCCNC(=N)N)NC(=O)[C@@H](NC(=O)[C@H](Cc1ccc(O)cc1)NC(=O)[C@H](CC(N)=O)NC(=O)[C@H](CC(=O)O)NC(=O)[C@@H](NC(=O)[C@H](Cc1ccccc1)NC(=O)[C@@H](NC(=O)[C@H](C)NC(=O)[C@H](CC(=O)O)NC(=O)[C@H](CO)NC(=O)[C@H](Cc1c[nH]cn1)NC(=O)CCc1ccccc1)C(C)C)[C@@H](C)O)[C@@H](C)O)C(C)C)C(=O)N[C@@H](CCCCN)C(=O)N[C@@H](CC(N)=O)C(=O)N[C@@H](CO)C(=O)N[C@@H](CCCNC(=N)N)C(=O)N[C@H](C(=O)N[C@@H](CO)C(=O)N1CCC[C@H]1C(=O)N1CCC[C@H]1C(=O)N1CCC[C@H]1C(N)=O)[C@@H](C)O [Agonist P90] (Hydrocinnamoyl-HSDAVFTDNYTRLRKQVAAKKYLQSIKNSRTSPPP-NH2) | 1.7 nM | 0.82 nM | 65 nM | 4.01 nM | – | – | – |
| B1 | – | – | – | – | 0.01 nM | 0.8 nM | EC50 (nM) for cAMP generation, DiscoveRx [8]: 0.18 nM; EC50 for cAMP generation, DiscoveRx (rat VPAC2 receptor): 0.05 nM |
| B2 | – | – | – | – | 0.16 nM | – | EC50 for cAMP generation, DiscoveRx (rat VPAC2 receptor): 0.05 nM |
| B3 | – | – | – | – | – | 0.47 nM | – |
| HSDAVFTDNYTRLRKAAAAKKYLQSIKNSRTSPPP-NH2 [P97] | – | – | – | – | 0.64 nM | 0.3 nM | – |
